Measured values taken from ChEMBL document CHEMBL3046629, “Fungicidal Activities of 2-Methoxy-2-[2-(benzylideneaminooxymethyl)phenyl]-N-methylacetamide Derivatives” (2002).
Calls of active or inactive are those of the source. The rule behind the calls is not given here.

Assays:
[1] = test system: Pseudoperonospora cubensis; experiment: Fungicidal activity against Pseudoperonospora cubensis assessed as cucumber downy mildew disease control in field at 400 ppm measured after 9 days of last application; type: functional
[2] = test system: Pseudoperonospora cubensis; experiment: Fungicidal activity against Pseudoperonospora cubensis assessed as cucumber downy mildew disease control at 500 ppm foliar application 24 hr before inoculation onto the abaxial(treated) surface of leaf by preventive manner; type: functional
[3] = test system: Pseudoperonospora cubensis; experiment: Fungicidal activity against Pseudoperonospora cubensis assessed as cucumber downy mildew disease control at 500 ppm foliar application 24 hr before inoculation onto the adaxial(treated) surface of leaf by preventive manner; type: functional
[4] = test system: Botrytis cinerea; experiment: Fungicidal activity against Botryotinia fuckeliana assessed as cucumber gray mold disease control at 500 ppm treated on upper surface of leaf 24 hr before inoculation at 22 +/- 2 degC measured after 3 days by preventive manner; type: functional
[5] = test system: Podosphaera fuliginea; experiment: Fungicidal activity against Podosphaera fuliginea assessed as cucumber powdery mildew disease control at 125 ppm treated on upper surface of leaf 24 hr before inoculation at 23 +/- 2 degC measured after 10 days by preventive manner; type: functional
[6] = test system: Pseudoperonospora cubensis; experiment: Fungicidal activity against Pseudoperonospora cubensis assessed as cucumber downy mildew disease control at 125 ppm foliar application 24 hr before inoculation onto the abaxial(treated) surface of leaf by preventive manner; type: functional
[7] = test system: Pseudoperonospora cubensis; experiment: Fungicidal activity against Pseudoperonospora cubensis assessed as cucumber downy mildew disease control at 2 ppm foliar application 24 hr after inoculation by curative manner; type: functional
[8] = test system: Pseudoperonospora cubensis; experiment: Fungicidal activity against Pseudoperonospora cubensis assessed as cucumber downy mildew disease control at 7.8 ppm foliar application 24 hr after inoculation by curative manner; type: functional
[9] = test system: Pseudoperonospora cubensis; experiment: Fungicidal activity against Pseudoperonospora cubensis assessed as cucumber downy mildew disease control at 31.3 ppm foliar application 24 hr after inoculation by curative manner; type: functional
[10] = test system: Pseudoperonospora cubensis; experiment: Fungicidal activity against Pseudoperonospora cubensis assessed as cucumber downy mildew disease control at 125 ppm foliar application 24 hr after inoculation by curative manner; type: functional
[11] = test system: Pseudoperonospora cubensis; experiment: Fungicidal activity against Pseudoperonospora cubensis assessed as cucumber downy mildew disease control at 2 ppm foliar application 24 hr before inoculation onto the abaxial(treated) surface of leaf by preventive manner; type: functional
[12] = test system: Pseudoperonospora cubensis; experiment: Fungicidal activity against Pseudoperonospora cubensis assessed as cucumber downy mildew disease control at 31.3 ppm foliar application 24 hr before inoculation onto the abaxial(treated) surface of leaf by preventive manner; type: functional
[13] = test system: Pseudoperonospora cubensis; experiment: Fungicidal activity against Pseudoperonospora cubensis assessed as cucumber downy mildew disease control at 7.8 ppm foliar application 24 hr before inoculation onto the abaxial(treated) surface of leaf by preventive manner; type: functional
[14] = test system: Pseudoperonospora cubensis; experiment: Fungicidal activity against Pseudoperonospora cubensis assessed as cucumber downy mildew disease control at 2 ppm foliar application 24 hr before inoculation onto the adaxial(treated) surface of leaf by preventive manner; type: functional
[15] = test system: Pseudoperonospora cubensis; experiment: Fungicidal activity against Pseudoperonospora cubensis assessed as cucumber downy mildew disease control at 125 ppm foliar application 24 hr before inoculation onto the adaxial(treated) surface of leaf by preventive manner; type: functional
[16] = test system: Pseudoperonospora cubensis; experiment: Fungicidal activity against Pseudoperonospora cubensis assessed as cucumber downy mildew disease control at 31.3 ppm foliar application 24 hr before inoculation onto the adaxial(treated) surface of leaf by preventive manner; type: functional
[17] = test system: Pseudoperonospora cubensis; experiment: Fungicidal activity against Pseudoperonospora cubensis assessed as cucumber downy mildew disease control at 7.8 ppm foliar application 24 hr before inoculation onto the adaxial(treated) surface of leaf by preventive manner; type: functional
[18] = test system: Botrytis cinerea; experiment: Fungicidal activity against Botryotinia fuckeliana assessed as cucumber gray mold disease control at 125 ppm treated on upper surface of leaf 24 hr before inoculation at 22 +/- 2 degC measured after 3 days by preventive manner; type: functional
[19] = test system: Podosphaera fuliginea; experiment: Fungicidal activity against Podosphaera fuliginea assessed as cucumber powdery mildew disease control at 500 ppm treated on upper surface of leaf 24 hr before inoculation at 23 +/- 2 degC measured after 10 days by preventive manner; type: functional
[20] = test system: Pseudoperonospora cubensis; experiment: Fungicidal activity against Pseudoperonospora cubensis assessed as cucumber downy mildew disease control in field at 100 ppm measured after 9 days of last application; type: functional
[21] = test system: Botrytis cinerea; experiment: Fungicidal activity against Botryotinia fuckeliana assessed as cucumber gray mold disease control at 7.8 ppm treated on upper surface of leaf 24 hr before inoculation at 22 +/- 2 degC measured after 3 days by preventive manner; type: functional
[22] = test system: Podosphaera fuliginea; experiment: Fungicidal activity against Podosphaera fuliginea assessed as cucumber powdery mildew disease control at 7.8 ppm treated on upper surface of leaf 24 hr before inoculation at 23 +/- 2 degC measured after 10 days by preventive manner; type: functional
[23] = test system: Pseudoperonospora cubensis; experiment: Fungicidal activity against Pseudoperonospora cubensis assessed as cucumber downy mildew disease control in field at 25 ppm measured after 9 days of last application; type: functional
[24] = test system: Botrytis cinerea; experiment: Fungicidal activity against Botryotinia fuckeliana assessed as cucumber gray mold disease control at 31.3 ppm treated on upper surface of leaf 24 hr before inoculation at 22 +/- 2 degC measured after 3 days by preventive manner; type: functional
[25] = test system: Podosphaera fuliginea; experiment: Fungicidal activity against Podosphaera fuliginea assessed as cucumber powdery mildew disease control at 31.3 ppm treated on upper surface of leaf 24 hr before inoculation at 23 +/- 2 degC measured after 10 days by preventive manner; type: functional
[26] = test system: Phytophthora infestans; experiment: Fungicidal activity against Phytophthora infestans assessed as potato late blight disease suppression in field at 100 ppm following 4 applications at 1 week intervals; type: functional, organism-based

SMILES	Activity [2] [%]	Activity [3] [%]	Activity [6] [%]	Activity [7] [%]	Activity [8] [%]	Activity [9] [%]	Activity [10] [%]	Activity [11] [%]	Activity [12] [%]	Activity [13] [%]	Activity [14] [%]	Activity [15] [%]	Activity [16] [%]	Activity [17] [%]	Activity [18] [%]	Activity [20] [%]	Activity [22] [%]	Activity [23] [%]	other results
N#Cc1c(Cl)c(Cl)c(Cl)c(C#N)c1Cl [CHLOROTHALONIL]	–	–	–	–	–	–	–	–	–	–	–	–	–	–	–	–	–	–	Activity [1]: 55.3%
CNC(=O)C(OC)c1ccccc1COc1ccccc1 (racemic)	<90	<90	–	–	–	–	–	–	–	–	–	–	–	–	–	–	–	–	Activity [4]: <50%; Activity [5]: 90%
CNC(=O)C(OC)c1ccccc1CO/N=C(/SC)c1ccc(OC)cc1 (racemic)	90	96	64	25	25	65	95	25	40	25	90	100	100	99	50	–	–	–	Activity [19]: <90%
CNC(=O)C(OC)c1ccccc1CO/N=C(\C)c1ccc(OC(F)F)cc1 (racemic)	97	97	95	25	70	75	75	30	90	65	97	97	97	97	–	52.6	90	–	Activity [21]: 50%
CNC(=O)C(OC)c1ccccc1CO/N=C(/SC)c1ccc(OC(F)F)cc1 (racemic)	100	100	100	30	40	65	78	60	80	80	100	100	100	100	–	81.6	–	71.4	Activity [24]: 50%; Activity [25]: 90%
CNC(=O)C(OC)c1ccccc1CO/N=C(/SC)c1ccc(C(F)(F)F)cc1 (racemic)	100	100	97	50	79	95	95	25	99	192	100	100	100	100	50	96.1	90	62.3	inhibition [26]: Active
